# In paper PMC8331687 (ACS chemical biology, 2020):
# Molecular target: T1, ObiH (Pseudomonas fluorescens, UniProt A0A1X9LWZ7)
# T1 sequence (A0A1X9LWZ7 1-440): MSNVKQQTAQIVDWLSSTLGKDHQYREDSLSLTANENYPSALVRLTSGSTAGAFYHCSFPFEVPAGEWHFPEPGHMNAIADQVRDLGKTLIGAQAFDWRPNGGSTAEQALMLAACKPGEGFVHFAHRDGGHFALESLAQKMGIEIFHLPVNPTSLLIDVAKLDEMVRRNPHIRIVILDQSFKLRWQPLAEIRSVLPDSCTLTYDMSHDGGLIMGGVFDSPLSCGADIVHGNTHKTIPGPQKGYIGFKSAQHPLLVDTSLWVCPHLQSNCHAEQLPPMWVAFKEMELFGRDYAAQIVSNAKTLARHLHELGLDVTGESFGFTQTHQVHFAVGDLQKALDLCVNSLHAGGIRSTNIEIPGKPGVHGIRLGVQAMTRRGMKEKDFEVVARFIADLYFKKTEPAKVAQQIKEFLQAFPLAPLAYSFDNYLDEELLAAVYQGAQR
# Assay: UV-vis titration of quinonoid at […] nm
# Type: binding
smiles,measurement,value
CC=O [acetaldehyde],Kd,430 ± 15 µM
